Reference: patent US5574013A (Warner-Lambert Company, priority 1993, dated 1996)

Biological target: T1, CCK B (Mus musculus, UniProt P56481)
T1 construct: from tissue; host or cells: cerebral cortex membranes of male CFLP mice
T1 sequence (P56481 1-453): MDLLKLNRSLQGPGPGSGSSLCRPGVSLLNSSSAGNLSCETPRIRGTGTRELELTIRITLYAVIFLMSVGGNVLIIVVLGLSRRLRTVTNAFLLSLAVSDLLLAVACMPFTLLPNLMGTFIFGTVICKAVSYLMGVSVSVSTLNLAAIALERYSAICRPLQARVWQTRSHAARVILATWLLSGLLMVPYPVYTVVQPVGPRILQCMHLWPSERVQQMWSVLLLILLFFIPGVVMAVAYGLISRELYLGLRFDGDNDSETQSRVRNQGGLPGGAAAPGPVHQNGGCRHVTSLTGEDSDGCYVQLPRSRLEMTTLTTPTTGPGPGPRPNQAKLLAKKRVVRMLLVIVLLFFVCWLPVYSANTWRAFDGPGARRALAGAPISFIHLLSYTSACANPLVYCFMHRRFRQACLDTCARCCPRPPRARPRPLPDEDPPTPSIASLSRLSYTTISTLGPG
Assay: CCK receptor binding screening test, displacement of tritiated-pentagastrin from mouse cerebral cortical membranes
Settings: Ki by Cheng-Prusoff; 2 nM tritiated-pentagastrin; mouse cerebral cortex membranes; read-out: Binding Affinity CCK B
Experimental: The biological activity of compounds of the present invention was evaluated employing an initial screening test which rapidly and accurately measured the binding of the tested compound to known CCK receptor sites. […] (See Hays et al, Neuropeptides 1:53-62, 1980; and Satuer et al, Science 208:1155-1156, 1980.
In this screening test, the cerebral cortices taken from male CFLP mice weighing between 30-40 g were dissected on ice, weighed, and homogenized in 10 volumes of 50 mM Tris-HCl buffer (pH 7.4 at 0°-4° C.). The resulting suspension was centrifuged, the supernate was discarded, and the pellet was washed by resuspension in Tris-HCl buffer followed by recentrifugation. The final pellet was resuspended in 20 volumes of […] Hepes buffer (pH 7.2 at 23° C.) containing 130 mM NaCl, […] KCl, […] MgCl2, […] EDTA, 5 mg/mL bovine albumin, and bacitracin (0.25 mg/mL).
In saturation studies, cerebral cortical membranes were incubated at 23° C. for 120 minutes in a final volume of 500 μL of Hepes incubation buffer (pH 7.2) together with 0.2-20 nM tritiated-pentagastrin (Amersham International, England).
In the displacement experiments, membranes were incubated with a single concentration (2 nM) of ligand, together with increasing concentrations ([…]) of competitive test compound. In each case, the nonspecific binding was defined as that persisting in the presence of the unlabeled octapeptide CCK26-33 (10^-6 M).
Following incubation, radioactivity bound to membranes was separated from that free in solution by rapid filtration through Whatman GF/B filters and washed three times with 4 mL of ice cold Tris-HCl buffer. Filters from samples incubated with tritiated-pentagastrin were placed in polyethylene vials with 4 mL of scintillation cocktail, and the radioactivity was estimated by liquid scintillation spectrometry (efficiency 47-52%).
The specific binding to CCK receptor sites was defined as the total bound tritiated-pentagastrin minus the amount of tritiated-pentagastrin bound in the presence of 10^-6 octapeptide, CCK26-33.
Saturation curves for specific tritiated-pentagastrin binding to mouse cortical membranes were analyzed by the methods of Scatchard (Ann. New York Acad. Sci. 51:660-672, 1949, and Hill (J. Physiol. 40:IV-VIII, 1910, to provide estimates for the maximum number of binding sites (Bmax) and the equilibrium dissociation constant (Ka).
In displacement experiments, inhibition curves were analyzed by either logit-log plots or the iterative curve fitting computer program ALLFIT (DeLean, Munson and Redbard, 1978) to provide estimates of the IC50 and nH (apparent Hill coefficient) values). (IC50 values were defined as the concentration of test compound required to produce 50% inhibition of specific binding.)
The inhibition constant (Ki) of the test compound was then calculated according to the Cheng-Prusoff equation: [formula] where [L] is the concentration of radiolabel and Ka is the equilibrium dissociation constant.
The Ki values for several representative compounds of the present invention are present in Table I.

Row | Compound | Ki [nM]
1 | C[C@](Cc1c[nH]c2ccccc12)(NC(=O)OC1C2CC3CC(C2)CC1C3)C(=O)NCC(=O)O (stereo partly drawn) [Example 4] | 1510
2 | C[C@](Cc1c[nH]c2ccccc12)(NC(=O)OC1C2CC3CC(C2)CC1C3)C(=O)NCCC(=O)O (stereo partly drawn) [Example 6, β-Alanine, N-[α-methyl-N-[(tricyclo[3.3.1.1^3,7]dec-2-yloxy)carbonyl]-D-tryptophyl]-] | 4380
3 | CSCC[C@H](NC(=O)[C@@](C)(Cc1c[nH]c2ccccc12)NC(=O)OC1C2CC3CC(C2)CC1C3)C(=O)O (stereo partly drawn) [Example 11, N-[α-methyl-N-[(tricyclo[3.3.1.1^3,7]dec-2-yloxy)carbonyl]-D-tryptophyl]-L-methionine] | 24
4 | CCC(C)C(CO)NC(=O)C(C)(Cc1c[nH]c2ccccc12)NC(=O)OC1C2CC3CC(C2)CC1C3 (stereo not drawn) [Example 9, Carbamic acid, [2-[[1-(hydroxymethyl)-2-methylbutyl]amino]-1-(1H-indol-3-ylmethyl)-1-methyl-2-oxoethyl]-, tricyclo[3.3.1.1^3,7]dec-2-yl ester, [1S-[1R*(S*), 2R*]]-] | 225
5 | C[C@](Cc1c[nH]c2ccccc12)(NC(=O)OC1C2CC3CC(C2)CC1C3)C(=O)NCC(=O)OCc1ccccc1 (stereo partly drawn) [Example 3, Gycine, N-[2-methyl-N-[(tricyclo[3.3.1.1^3,7]dec-2-yloxy)carbonyl]-D-tryptophyl]-, phenylmethyl ester] | 50.4
6 | COC(=O)CCNC(=O)[C@H](CCSC)NC(=O)[C@@](C)(Cc1c[nH]c2ccccc12)NC(=O)OC1C2CC3CC(C2)CC1C3 (stereo partly drawn) [Example 12] | 30
7 | C[C@](Cc1c[nH]c2ccccc12)(NC(=O)OC1C2CC3CC(C2)CC1C3)C(=O)NCCC(=O)OCc1ccccc1 (stereo partly drawn) [Example 7, Propanoic acid, 3-[(3-(1H-indol-3-yl)-2-methyl-1-oxo-2-[[(tricyclo[3.3.1.1^3,7]dec-2-yloxy)carbonyl]amino]propyl]amino]--, phenylmethyl ester (R)-] | 299
8 | COC(=O)CCCNC(=O)[C@@](C)(Cc1c[nH]c2ccccc12)NC(=O)OC1C2CC3CC(C2)CC1C3 (stereo partly drawn) [Example 1, Butanoic acid, 4-[[3-(1H-indol-3-yl)-2-methyl-1-oxo-2-[[(tricyclo[3.3.1.1^3,7]dec-2-yloxy)carbonyl]amino]propyl]amino]-, methyl ester (R)-] | 82.1
9 | CC(C)CC(CO)NC(=O)C(C)(Cc1c[nH]c2ccccc12)NC(=O)OC1C2CC3CC(C2)CC1C3 (stereo not drawn) [Example 8, Carbamic acid, [2-[[1-(hydroxymethyl)-3-methylbutyl]amino]-1-(1H-indol-3-ylmethyl)-1-methyl-2-oxoethyl]-, tricyclo[3.3.1.1^3,7]dec-2-yl ester, [R-(R*,S*)]-] | 292
